Measurements: US20210276987A1, “PHARMACEUTICAL AGENTS FOR USE IN SMOKING AND TOBACCO CESSATION” (Washington State University, priority 2018, published 2021)

How the values were obtained:
CYP2B6 = biological target: T1, CYP2B6 (Homo sapiens, UniProt P20813); details: Table 6
T1 sequence (P20813 1-491): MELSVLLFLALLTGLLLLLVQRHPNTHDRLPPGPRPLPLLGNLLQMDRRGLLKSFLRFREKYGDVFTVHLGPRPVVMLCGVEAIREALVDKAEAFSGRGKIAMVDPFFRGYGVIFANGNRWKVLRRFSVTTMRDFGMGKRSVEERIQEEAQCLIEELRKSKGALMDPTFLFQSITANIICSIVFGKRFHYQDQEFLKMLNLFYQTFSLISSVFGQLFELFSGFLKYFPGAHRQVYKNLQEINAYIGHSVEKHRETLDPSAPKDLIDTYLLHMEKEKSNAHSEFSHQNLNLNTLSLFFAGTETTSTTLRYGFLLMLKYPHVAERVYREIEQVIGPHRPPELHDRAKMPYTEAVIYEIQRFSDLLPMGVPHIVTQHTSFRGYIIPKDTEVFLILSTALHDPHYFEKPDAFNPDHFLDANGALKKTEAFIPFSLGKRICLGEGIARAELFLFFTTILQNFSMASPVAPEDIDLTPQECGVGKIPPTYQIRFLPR

CYP2C9 = CYP2C9 (Homo sapiens, UniProt P11712); assay: CYP2C9 inhibition assay, human liver microsomes, diclofenac probe (cocktail); details: Table 6
Sequence of CYP2C9 (P11712 whole entry): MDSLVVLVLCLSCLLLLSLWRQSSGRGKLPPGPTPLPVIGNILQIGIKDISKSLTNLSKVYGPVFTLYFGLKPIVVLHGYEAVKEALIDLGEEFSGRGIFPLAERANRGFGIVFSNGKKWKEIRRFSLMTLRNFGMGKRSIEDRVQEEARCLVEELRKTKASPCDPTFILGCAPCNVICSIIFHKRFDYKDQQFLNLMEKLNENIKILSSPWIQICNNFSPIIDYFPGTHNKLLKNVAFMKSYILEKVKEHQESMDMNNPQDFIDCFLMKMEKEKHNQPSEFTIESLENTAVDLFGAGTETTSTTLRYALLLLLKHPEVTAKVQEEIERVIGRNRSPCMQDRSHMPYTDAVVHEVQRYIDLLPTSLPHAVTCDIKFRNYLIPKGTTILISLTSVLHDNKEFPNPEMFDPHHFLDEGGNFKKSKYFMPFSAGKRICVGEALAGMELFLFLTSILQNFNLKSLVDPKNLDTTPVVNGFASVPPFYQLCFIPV

CYP2E1 = CYP2E1 (Homo sapiens, UniProt P05181); details: Table 6
Sequence of CYP2E1 (P05181 whole entry): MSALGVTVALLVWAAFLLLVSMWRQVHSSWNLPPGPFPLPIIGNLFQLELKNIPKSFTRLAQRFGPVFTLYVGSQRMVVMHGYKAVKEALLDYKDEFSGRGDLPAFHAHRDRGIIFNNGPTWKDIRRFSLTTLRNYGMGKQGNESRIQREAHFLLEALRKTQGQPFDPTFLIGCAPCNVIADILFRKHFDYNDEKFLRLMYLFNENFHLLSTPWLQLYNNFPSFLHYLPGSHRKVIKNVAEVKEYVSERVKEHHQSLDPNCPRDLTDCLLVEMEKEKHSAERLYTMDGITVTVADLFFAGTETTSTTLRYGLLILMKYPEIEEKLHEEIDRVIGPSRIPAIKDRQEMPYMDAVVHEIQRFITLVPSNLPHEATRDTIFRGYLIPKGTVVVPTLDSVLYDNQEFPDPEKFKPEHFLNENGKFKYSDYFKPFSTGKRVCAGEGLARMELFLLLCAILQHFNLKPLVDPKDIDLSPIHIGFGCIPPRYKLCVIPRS

UGT2B17 = UGT2B17 (Homo sapiens, UniProt O75795); details: Table 10
Sequence of UGT2B17 (O75795 24-530): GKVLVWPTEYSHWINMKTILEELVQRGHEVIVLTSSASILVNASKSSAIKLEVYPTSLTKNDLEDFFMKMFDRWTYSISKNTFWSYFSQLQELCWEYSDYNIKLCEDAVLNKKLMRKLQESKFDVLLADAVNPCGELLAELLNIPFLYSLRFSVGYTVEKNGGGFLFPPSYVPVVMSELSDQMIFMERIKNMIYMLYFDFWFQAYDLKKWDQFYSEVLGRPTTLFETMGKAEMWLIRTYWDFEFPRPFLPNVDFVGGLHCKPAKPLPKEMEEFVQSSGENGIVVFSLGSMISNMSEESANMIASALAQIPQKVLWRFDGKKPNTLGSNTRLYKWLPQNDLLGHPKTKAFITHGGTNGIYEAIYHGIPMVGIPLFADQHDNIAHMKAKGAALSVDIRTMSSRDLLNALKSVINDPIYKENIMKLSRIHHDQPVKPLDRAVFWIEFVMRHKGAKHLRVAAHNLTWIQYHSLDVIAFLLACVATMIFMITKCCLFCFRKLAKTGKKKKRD

UGT1A1 = UGT1A1 (Homo sapiens, UniProt P22309); details: Table 10
Sequence of UGT1A1 (P22309 26-533): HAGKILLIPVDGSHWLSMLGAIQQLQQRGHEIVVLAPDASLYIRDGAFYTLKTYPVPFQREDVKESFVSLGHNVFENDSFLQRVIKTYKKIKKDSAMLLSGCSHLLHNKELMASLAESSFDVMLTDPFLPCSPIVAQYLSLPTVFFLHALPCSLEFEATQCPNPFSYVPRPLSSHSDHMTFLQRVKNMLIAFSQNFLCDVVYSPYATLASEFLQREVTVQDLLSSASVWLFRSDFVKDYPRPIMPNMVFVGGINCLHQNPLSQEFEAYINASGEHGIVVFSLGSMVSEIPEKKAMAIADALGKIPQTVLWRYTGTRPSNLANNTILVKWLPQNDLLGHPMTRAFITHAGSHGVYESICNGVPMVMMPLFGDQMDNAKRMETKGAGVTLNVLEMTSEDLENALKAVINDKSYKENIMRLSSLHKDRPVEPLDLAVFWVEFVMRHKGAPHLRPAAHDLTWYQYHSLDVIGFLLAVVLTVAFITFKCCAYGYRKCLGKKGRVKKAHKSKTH

UGT1A9 = UGT1A9 (Homo sapiens, UniProt O60656); details: Table 10
Sequence of UGT1A9 (O60656 26-530): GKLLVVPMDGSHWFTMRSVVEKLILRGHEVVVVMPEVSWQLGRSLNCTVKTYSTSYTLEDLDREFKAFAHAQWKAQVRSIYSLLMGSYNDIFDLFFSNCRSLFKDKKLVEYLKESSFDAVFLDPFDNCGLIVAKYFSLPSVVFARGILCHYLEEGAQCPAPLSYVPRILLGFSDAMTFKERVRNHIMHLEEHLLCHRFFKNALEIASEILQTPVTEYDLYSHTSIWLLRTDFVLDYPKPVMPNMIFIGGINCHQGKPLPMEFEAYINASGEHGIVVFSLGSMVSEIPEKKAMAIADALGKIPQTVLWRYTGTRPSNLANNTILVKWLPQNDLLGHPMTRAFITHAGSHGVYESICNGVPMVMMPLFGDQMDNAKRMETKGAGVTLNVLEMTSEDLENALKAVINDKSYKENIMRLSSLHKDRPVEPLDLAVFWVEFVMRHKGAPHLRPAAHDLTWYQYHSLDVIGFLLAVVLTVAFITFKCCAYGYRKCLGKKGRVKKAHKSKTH

UGT2B7 = UGT2B7 (Homo sapiens, UniProt P16662); details: Table 10
Sequence of UGT2B7 (P16662 24-529): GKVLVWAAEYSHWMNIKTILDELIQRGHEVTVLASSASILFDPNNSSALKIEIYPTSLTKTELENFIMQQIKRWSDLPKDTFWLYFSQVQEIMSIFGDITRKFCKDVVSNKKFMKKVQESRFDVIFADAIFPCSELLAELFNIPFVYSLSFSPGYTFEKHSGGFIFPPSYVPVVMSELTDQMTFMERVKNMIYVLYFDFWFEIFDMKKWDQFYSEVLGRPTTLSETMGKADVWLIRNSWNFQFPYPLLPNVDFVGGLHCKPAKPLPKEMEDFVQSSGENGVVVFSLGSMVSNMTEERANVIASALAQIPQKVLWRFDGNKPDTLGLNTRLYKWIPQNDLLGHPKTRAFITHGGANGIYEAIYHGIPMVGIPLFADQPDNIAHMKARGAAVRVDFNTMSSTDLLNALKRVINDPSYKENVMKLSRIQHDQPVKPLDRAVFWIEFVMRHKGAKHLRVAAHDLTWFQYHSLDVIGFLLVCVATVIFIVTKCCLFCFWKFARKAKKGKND

UGT1A4 = UGT1A4 (Homo sapiens, UniProt P22310); details: Table 10
Sequence of UGT1A4 (P22310 29-534): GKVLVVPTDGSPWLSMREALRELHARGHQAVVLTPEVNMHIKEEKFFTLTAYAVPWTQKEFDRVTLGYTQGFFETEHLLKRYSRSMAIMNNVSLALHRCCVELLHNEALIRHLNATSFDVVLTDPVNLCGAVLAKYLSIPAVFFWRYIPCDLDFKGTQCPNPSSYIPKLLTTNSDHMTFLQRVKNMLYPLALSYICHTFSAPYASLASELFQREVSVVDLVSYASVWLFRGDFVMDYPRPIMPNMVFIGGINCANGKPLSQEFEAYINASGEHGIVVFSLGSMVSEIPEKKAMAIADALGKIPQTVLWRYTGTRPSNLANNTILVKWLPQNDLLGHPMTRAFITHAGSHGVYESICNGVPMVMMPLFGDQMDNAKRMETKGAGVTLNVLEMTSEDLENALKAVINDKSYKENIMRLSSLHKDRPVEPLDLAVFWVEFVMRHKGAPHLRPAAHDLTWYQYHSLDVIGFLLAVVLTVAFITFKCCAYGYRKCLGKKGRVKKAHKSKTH

CYP1A2 = biological target: T2, CYP1A2 (Homo sapiens, UniProt P05177); assay: CYP1A2 inhibition assay, human liver microsomes, phenacetin probe (cocktail); details: Table 6
T2 sequence (P05177 1-516): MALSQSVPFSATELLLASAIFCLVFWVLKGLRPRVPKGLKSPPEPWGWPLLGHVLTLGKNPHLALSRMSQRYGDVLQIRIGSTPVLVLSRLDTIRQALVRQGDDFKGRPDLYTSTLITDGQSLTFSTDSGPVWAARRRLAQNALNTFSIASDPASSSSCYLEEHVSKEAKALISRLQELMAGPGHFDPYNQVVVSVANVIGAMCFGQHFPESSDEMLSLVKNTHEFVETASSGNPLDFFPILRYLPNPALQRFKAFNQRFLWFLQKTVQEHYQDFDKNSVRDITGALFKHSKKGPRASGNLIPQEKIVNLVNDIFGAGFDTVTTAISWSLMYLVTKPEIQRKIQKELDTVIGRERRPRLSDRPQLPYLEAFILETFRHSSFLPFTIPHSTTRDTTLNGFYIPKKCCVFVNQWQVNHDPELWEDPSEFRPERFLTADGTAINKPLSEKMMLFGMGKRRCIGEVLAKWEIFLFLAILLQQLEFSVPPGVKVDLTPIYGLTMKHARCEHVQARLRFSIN

UGT2B15 = UGT2B15 (Homo sapiens, UniProt P54855); details: Table 10
Sequence of UGT2B15 (P54855 24-530): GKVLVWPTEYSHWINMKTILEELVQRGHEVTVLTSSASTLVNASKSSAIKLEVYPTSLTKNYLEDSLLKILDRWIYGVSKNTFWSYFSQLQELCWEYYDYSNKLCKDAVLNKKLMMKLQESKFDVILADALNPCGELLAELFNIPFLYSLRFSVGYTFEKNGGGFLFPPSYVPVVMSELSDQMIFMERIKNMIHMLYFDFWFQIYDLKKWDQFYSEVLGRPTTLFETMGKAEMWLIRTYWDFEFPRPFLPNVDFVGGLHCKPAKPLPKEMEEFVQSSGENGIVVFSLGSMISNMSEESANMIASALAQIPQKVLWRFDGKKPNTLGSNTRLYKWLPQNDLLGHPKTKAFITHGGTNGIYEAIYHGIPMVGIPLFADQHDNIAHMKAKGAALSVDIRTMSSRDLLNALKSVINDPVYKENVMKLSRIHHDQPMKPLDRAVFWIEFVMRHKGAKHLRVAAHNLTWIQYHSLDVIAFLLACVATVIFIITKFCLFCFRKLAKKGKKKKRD

CYP2C8 = biological target: T3, CYP2C8 (Homo sapiens, UniProt P10632); details: Table 6
T3 sequence (P10632 1-490): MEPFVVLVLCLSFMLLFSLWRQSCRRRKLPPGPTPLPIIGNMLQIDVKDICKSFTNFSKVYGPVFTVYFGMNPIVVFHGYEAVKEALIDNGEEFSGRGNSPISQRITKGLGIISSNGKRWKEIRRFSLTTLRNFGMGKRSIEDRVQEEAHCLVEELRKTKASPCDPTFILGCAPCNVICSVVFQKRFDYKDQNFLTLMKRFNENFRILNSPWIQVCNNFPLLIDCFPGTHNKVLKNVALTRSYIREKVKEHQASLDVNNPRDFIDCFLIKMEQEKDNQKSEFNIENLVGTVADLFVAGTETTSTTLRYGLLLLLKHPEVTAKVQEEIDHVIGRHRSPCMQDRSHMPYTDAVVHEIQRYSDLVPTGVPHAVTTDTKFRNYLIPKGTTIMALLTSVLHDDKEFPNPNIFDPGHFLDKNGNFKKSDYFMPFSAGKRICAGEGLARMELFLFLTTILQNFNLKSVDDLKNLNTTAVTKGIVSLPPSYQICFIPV

UGT2B10 = biological target: T4, UGT2B10 (Homo sapiens, UniProt P36537); assay: biochemical
T4 sequence (P36537 24-528): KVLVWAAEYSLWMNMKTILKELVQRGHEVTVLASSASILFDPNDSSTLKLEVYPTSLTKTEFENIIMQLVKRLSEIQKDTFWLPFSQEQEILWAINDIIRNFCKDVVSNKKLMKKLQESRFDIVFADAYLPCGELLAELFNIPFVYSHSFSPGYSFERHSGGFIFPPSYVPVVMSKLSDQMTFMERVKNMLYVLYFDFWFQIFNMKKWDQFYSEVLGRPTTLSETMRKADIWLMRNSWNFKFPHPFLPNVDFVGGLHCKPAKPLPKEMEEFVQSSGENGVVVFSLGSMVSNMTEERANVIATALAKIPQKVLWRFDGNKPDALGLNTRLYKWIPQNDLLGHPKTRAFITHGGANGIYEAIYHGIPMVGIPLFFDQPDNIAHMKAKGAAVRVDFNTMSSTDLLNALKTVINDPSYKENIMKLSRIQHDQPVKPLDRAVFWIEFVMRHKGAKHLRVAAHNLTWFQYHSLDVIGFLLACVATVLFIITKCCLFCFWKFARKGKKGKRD
Procedure: Initial screening assays were performed as described above for the CYP assays using 1 μM or 10 μM of each of the NAs. The inhibitory effects of each agent against UGT2B10 was performed using the known UGT2B10-specific probe substrate, nicotine, in pooled human liver microsomes. […] Pre-incubations containing 500 μM nicotine and 1 or 10 μM NA were subsequently performed at 37° C. in 50 mM Tris-HCl buffer (pH 7.5, in a final volume of 50 μL) and 10 mM MgCl2 for 5 minutes.

`COc1ccncc1C#CCN` [Compound K, 3-(4-methoxypyridin-3-yl)prop-2-yn-1-amine] was tested, and the “IC50 ratio CYP2B6/CYP2A6” value (CYP2B6) was 3.2, the “IC50 ratio CYP2C9/CYP2A6” value (CYP2C9) was 8.2 and the “IC50 ratio CYP2E1/CYP2A6” value (CYP2E1) was 5.3. The “IC50 ratio UGT2B17/UGT2B10” value (UGT2B17) was 26, the “IC50 ratio UGT1A1/UGT2B10” value (UGT1A1) was 4 and the “IC50 ratio UGT1A9/UGT2B10” value (UGT1A9) was 5. The “IC50 ratio UGT2B7/UGT2B10” value (UGT2B7) was 13, the “IC50 ratio UGT1A4/UGT2B10” value (UGT1A4) was 7 and the “IC50 ratio CYP1A2/CYP2A6” value (CYP1A2) was 7.4. The “IC50 ratio UGT2B15/UGT2B10” value (UGT2B15) was 30, the “IC50 ratio CYP2C8/CYP2A6” value (CYP2C8) was over 15 and the IC50 (UGT2B10; IC50 against UGT2B10) was under 60 µM. The IC50 (UGT2B10; IC50 against UGT2B10 (μM), Table 9, pooled human liver microsomes, nicotine 500 μM) was 33 µM.
